Experimental data as given in article PMC7043210, “Differential activation of G protein‐mediated signaling by synthetic cannabinoid receptor agonists” (Pharmacology Research & Perspectives, 2020).
“Also recorded” adds a separate entry of the source. Where two headings read alike, the source gives them in different places.

Legend:
CB1 [1] = test system: CB1; design: method as in PMID 30925348, PMID 26795398, PMID 29042214, PMID 28874764, PMID 25769232; conditions: mice; cited from earlier work
human CB1 receptor [2] = target: T1, human CB1 receptor (Homo sapiens, UniProt P21554); assay type: cell-based
T1 construct: HA (hemagglutinin); expressed in transfected cells; host or cells: HEK 293 FlpIn cells with GIRK4 expression, stably transfected (pcDNA5/FRT + pOG44)

HEK 293 wild‐type cells = assay: FSK-stimulated cAMP accumulation in HEK 293 wild-type cells (not containing CB1 receptors); assay type: cell-based, human; conditions: 10 µmol L^−1, HEK 293 wild-type cells
CB1 [3] = test system: CB1; design: method as in PMID 29408093; conditions: HEK cells transiently expressing CB1; cited from earlier work
human CB1 receptor [4] = target: T1, human CB1 receptor; assay type: cell-based; remark: listed apart in the source
[5] = read-out: G i (‐PTX) EC50 (converted)
[6] = read-out: Gs (+PTX) EC50 (converted)
[7] = read-out: G s (+PTX) EC50 (converted)

T1 sequence (P21554 whole entry): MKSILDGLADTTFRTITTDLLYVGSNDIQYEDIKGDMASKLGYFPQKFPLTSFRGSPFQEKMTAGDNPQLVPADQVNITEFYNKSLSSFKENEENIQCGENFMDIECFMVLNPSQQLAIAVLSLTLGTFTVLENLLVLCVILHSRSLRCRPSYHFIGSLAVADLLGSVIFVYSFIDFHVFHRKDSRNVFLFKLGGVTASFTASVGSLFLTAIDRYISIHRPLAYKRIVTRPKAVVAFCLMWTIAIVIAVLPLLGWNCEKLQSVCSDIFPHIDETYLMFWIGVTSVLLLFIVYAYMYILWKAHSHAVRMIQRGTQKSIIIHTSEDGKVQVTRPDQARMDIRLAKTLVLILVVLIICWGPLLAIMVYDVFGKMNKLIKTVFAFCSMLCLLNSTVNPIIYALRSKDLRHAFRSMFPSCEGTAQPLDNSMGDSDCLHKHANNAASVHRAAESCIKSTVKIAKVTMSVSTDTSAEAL

SMILES	induced seizures, mechanism (CB1 [1])	effect of SR141716A pretreatment on SCRA-mediated stimulation of FSK-induced cAMP response (human CB1 receptor [2])	increase in cAMP levels above that produced by FSK alone (human CB1 receptor [2])	G i (‐PTX) E max (% FSK) (human CB1 receptor [4])	G i (‐PTX) pEC50 (human CB1 receptor [4])	EC50 (human CB1 receptor [4]; [5])	G s (+PTX) E max (% FSK) (human CB1 receptor [2])	G i (−PTX) selectivity (human CB1 receptor [4])	G s (+PTX) pEC50 (human CB1 receptor [2])	EC50 (human CB1 receptor [2]; [7])	also measured
O=C(c1cccc2ccccc12)c1cn(CCCCCF)c2ccccc12 [AM‐2201]	CB1‐mediated	–	–	–	–	–	–	–	–	–	–
CC(C)(NC(=O)c1nn(CCCCC#N)c2ccccc12)c1ccccc1 [CUMYL‐4CN‐BINACA, reference compound]	CB1‐mediated	–	–	–	–	–	–	–	–	–	–
CC(C)[C@H](NC(=O)c1nn(CC2CCCCC2)c2ccccc12)C(N)=O	–	only partially inhibited; also recorded: not significantly different	–	–	–	–	–	–	–	–	increase in cAMP levels above that of FSK alone (human CB1 receptor [2]): 86 ± 21%; increase in FSK‐stimulated cAMP accumulation (HEK 293 wild‐type cells): 29 ± 10%; effect on cAMP levels in absence and presence of forskolin (CB1 [3]): elevation in cAMP levels
CCCCCn1nc(C(=O)N[C@H](C(N)=O)C(C)C)c2ccccc21 [AB‐PINACA]	–	–	more than 30%	–	–	–	–	–	–	–	–
CCCCC/C=C\C/C=C\C/C=C\C/C=C\CCCC(=O)OC(CO)CO [2‐AG, 2‐arachidonoyl glycerol, reference compound]	–	–	–	–	–	–	–	–	–	–	effect on cAMP relative to CP55940 (human CB1 receptor [2]): approximately twice that of CP55940
CC(C)[C@H](NC(=O)c1nn(Cc2ccc(F)cc2)c2ccccc12)C(N)=O [AB‐FUBINACA]	–	inhibited	more than 30%	61 ± 2 % FSK	9.0 ± 0.2 (0.96)	0.96 nM	144 ± 12 % FSK	–	–	–	Gi (-PTX) selectivity (human CB1 receptor [4]): 348; effect of SR141716A pretreatment on SCRA-induced inhibition of cAMP signaling (human CB1 receptor [4]): blocked; EC50 (human CB1 receptor [4]; read-out: Gi (-PTX) EC50 (converted)): 1.1 nM; effect on cAMP relative to CP55940 (human CB1 receptor [2]): up to 2.5 times; EC50 (human CB1 receptor [2]; [6]): 383 nM
CC1(C)C(C(=O)c2cn(CCCCCF)c3ccccc23)C1(C)C [XLR‐11]	–	–	–	63 ± 2 % FSK	7.2 ± 0.2 (63)	63 nM	124 ± 5 % FSK	75	5.3 ± 0.8 (4720)	4720 nM	Gi (-PTX) selectivity (human CB1 receptor [4]): 103; Gs (+PTX) pEC50 (human CB1 receptor [2]): 5.2 ± 0.8 (6490); EC50 (human CB1 receptor [2]; [6]): 6490 nM
CCCCCCC(C)(C)c1ccc([C@@H]2C[C@H](O)CC[C@H]2CCCO)c(O)c1 [CP55940, reference compound]	–	–	19%	–	–	–	–	–	–	–	–
CCCCCn1cc(C(=O)c2cccc3ccccc23)c2ccccc21 [JWH‐018]	CB1‐mediated	inhibited	–	–	7.8 ± 0.2 (16)	16 nM	114 ± 4 % FSK	18	6.5 ± 0.7 (288)	288 nM	Gi (-PTX) selectivity (human CB1 receptor [4]): 14; effect of SR141716A pretreatment on SCRA-induced inhibition of cAMP signaling (human CB1 receptor [4]): blocked; Gs (+PTX) pEC50 (human CB1 receptor [2]): 6.7 ± 0.7 (221); activation of Gαs pathway (increase over FSK alone) (human CB1 receptor [2]): 14%; EC50 (human CB1 receptor [2]; [6]): 221 nM
COC(=O)[C@@H](NC(=O)c1cn(CCCCCF)c2ccccc12)C(C)(C)C [5F‐MDMB‐PICA]	–	inhibited	–	60 ± 4 % FSK	9.2 ± 0.2 (0.62)	0.62 nM	126 ± 5 % FSK	137	7.1 ± 0.4 (85)	85 nM	effect of SR141716A pretreatment on SCRA-induced inhibition of cAMP signaling (human CB1 receptor [4]): blocked
CC(C)[C@H](NC(=O)c1nn(CCCCCF)c2ccccc12)C(N)=O [5F‐AB‐PINACA]	CB1‐mediated	–	–	–	–	–	–	–	–	–	–
CCCCCn1cc(C(=O)Oc2cccc3cccnc23)c2ccccc21 [PB‐22]	–	–	more than 30%	64 ± 3 % FSK	8.6 ± 0.2 (2.5)	2.5 nM	130 ± 3 % FSK	28	7.2 ± 0.5 (69)	69 nM	–
